Assay [1] concerns the target Ba/F3 EGFR-Del19/T790M/C797S (Homo sapiens, UniProt P00533, T790M/C797S, cells depend on it, form not given). Nature of the assay: Ba/F3 viability assay (CellTiter-Glo), EGFR-Del19/T790M/C797S (DTC). To be noted: Ba/F3 EGFR-Del19/T790M/C797S anti-proliferation; read-out: BAF3 DTC IC50. The format is cell-based. The text has this: (§1) Inhibition of cell proliferation can be studied using Ba/F3 viability assays, including the Promega CellTiter-Glo cell viability assay. This assay can be used to study the effect of compounds described herein in the following assays: (1) Ba/F3 Parental; (2) Ba/F3 EGFR-Del19/T790M; (3); Ba/F3 EGFR-Del19/C797S; and (4) Ba/F3 EGFR-Del119/T790M/C797S.
(§2) One hundred thirty six compounds were studied using the kinase (EGFR) and BA/F3 assays described herein, with more than 60% of the tested compounds providing IC50<50 nM values in all six assays. Accordingly, compounds of the invention are a new general class of kinase inhibitors, including potent inhibitors of EGFR mutants.
(§3) Exemplary kinase inhibition (Kinase) and anti-proliferation activity (Ba/F3) data are shown in Table 1 for certain compounds of the invention and are categorized according to the below legend.
(In ATP-based viability assays light output follows the ATP content of the culture.)

The target of assay [2] is Ba/F3 EGFR-Del19/T790M (Homo sapiens, UniProt P00533, T790M, cells depend on it, form not given). Nature of the assay: Ba/F3 viability assay (CellTiter-Glo), EGFR-Del19/T790M (DT). It is filed as cell-based. To be noted: Ba/F3 EGFR-Del19/T790M anti-proliferation; read-out: BAF3 DT IC50.
Source text: as §1, §2, §3

In assay [3] the target is Ba/F3 EGFR-Del19/C797S (Homo sapiens, UniProt P00533, C797S, cells depend on it, form not given). Kind of assay: Ba/F3 viability assay (CellTiter-Glo), EGFR-Del19/C797S (DC). The format is cell-based. The note with it: Ba/F3 EGFR-Del19/C797S anti-proliferation; read-out: BAF3 DC IC50.
Source text: as §1, §2, §3

The target of assay [4] is EGFR^L858R/T790M (Homo sapiens, UniProt P00533, L858R/T790M). Nature of the assay: HTRF KinEASE-TK in vitro kinase assay, EGFR L858R/T790M (LT). The format is biochemical. The note with it: EGFR L858R/T790M kinase inhibition.
Source text: (§4) The biological activity of compounds described herein can be studied according to standard methods known in the art. Methods can be used to study inhibition of EGFR, including mutant forms of EGFR comprising L858R, T790M, C797S, and/or Del19 mutations, or any combination thereof (e.g., L858R single, double, or triple mutants). Exemplary, non-limiting methods are described herein.
(§5) Assays using an in vitro kinase assay kit (HTRF KinEASE-TK kit) can be used to study the inhibitory activity of compounds described herein with respect to EGFR mutants such as ECFR^L858R, EGFR^L858R/T790M, and EGFR^L858R/T790M/C797S.
as §2, §3

The target of assay [5] is EGFR^L858R (Homo sapiens, UniProt P00533, L858R). Kind of assay: HTRF KinEASE-TK in vitro kinase assay, EGFR L858R (L). The format is biochemical. The note with it: EGFR L858R kinase inhibition.
Source text: as §4, §5, §2, §3
In general terms: In TR-FRET formats the signal depends on donor and acceptor labels being close together.

Assay [6] addresses EGFR^L858R/T790M/C797S (Homo sapiens, UniProt P00533, C797S/L858R/T790M). Nature of the assay: HTRF KinEASE-TK in vitro kinase assay, EGFR L858R/T790M/C797S (LTC). It is filed as biochemical. To be noted: EGFR L858R/T790M/C797S kinase inhibition.
Source text: as §4, §5, §2, §3

Each structure is given as a SMILES string. pIC50: −log10 of the molar value.

Chain of EGFR^L858R/T790M/C797S (P00533 25-1210 T790M/C797S/L858R): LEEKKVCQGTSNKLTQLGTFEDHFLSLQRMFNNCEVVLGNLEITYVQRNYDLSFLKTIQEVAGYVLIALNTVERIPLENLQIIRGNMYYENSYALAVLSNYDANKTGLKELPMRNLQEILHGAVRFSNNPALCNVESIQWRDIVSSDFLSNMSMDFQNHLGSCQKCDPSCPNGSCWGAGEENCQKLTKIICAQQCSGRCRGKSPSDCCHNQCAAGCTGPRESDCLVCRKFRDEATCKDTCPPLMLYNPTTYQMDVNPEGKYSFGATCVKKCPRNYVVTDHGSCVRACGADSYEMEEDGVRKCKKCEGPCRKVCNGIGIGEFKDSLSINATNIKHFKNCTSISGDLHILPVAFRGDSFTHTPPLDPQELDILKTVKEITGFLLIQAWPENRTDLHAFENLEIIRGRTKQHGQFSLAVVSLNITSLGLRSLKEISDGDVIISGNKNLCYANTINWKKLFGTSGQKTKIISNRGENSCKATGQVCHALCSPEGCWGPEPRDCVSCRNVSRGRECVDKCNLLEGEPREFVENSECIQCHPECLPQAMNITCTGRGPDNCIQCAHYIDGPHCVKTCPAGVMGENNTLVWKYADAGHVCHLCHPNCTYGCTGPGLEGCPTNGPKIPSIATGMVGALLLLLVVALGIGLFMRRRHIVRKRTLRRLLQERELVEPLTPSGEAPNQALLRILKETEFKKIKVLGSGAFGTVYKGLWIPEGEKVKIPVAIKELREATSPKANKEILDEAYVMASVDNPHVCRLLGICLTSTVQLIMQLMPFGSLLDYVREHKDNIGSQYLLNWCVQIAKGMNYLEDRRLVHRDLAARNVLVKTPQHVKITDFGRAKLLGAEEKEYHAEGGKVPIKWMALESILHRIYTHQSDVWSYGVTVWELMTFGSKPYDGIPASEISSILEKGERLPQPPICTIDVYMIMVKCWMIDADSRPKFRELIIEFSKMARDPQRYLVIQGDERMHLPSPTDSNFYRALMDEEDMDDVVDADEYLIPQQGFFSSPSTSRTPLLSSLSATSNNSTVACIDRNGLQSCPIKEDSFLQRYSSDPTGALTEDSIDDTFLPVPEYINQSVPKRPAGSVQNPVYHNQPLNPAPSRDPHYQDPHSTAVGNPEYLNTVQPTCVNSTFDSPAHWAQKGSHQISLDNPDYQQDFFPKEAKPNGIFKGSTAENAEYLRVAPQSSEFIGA
Chain of EGFR^L858R (P00533 25-1210 L858R): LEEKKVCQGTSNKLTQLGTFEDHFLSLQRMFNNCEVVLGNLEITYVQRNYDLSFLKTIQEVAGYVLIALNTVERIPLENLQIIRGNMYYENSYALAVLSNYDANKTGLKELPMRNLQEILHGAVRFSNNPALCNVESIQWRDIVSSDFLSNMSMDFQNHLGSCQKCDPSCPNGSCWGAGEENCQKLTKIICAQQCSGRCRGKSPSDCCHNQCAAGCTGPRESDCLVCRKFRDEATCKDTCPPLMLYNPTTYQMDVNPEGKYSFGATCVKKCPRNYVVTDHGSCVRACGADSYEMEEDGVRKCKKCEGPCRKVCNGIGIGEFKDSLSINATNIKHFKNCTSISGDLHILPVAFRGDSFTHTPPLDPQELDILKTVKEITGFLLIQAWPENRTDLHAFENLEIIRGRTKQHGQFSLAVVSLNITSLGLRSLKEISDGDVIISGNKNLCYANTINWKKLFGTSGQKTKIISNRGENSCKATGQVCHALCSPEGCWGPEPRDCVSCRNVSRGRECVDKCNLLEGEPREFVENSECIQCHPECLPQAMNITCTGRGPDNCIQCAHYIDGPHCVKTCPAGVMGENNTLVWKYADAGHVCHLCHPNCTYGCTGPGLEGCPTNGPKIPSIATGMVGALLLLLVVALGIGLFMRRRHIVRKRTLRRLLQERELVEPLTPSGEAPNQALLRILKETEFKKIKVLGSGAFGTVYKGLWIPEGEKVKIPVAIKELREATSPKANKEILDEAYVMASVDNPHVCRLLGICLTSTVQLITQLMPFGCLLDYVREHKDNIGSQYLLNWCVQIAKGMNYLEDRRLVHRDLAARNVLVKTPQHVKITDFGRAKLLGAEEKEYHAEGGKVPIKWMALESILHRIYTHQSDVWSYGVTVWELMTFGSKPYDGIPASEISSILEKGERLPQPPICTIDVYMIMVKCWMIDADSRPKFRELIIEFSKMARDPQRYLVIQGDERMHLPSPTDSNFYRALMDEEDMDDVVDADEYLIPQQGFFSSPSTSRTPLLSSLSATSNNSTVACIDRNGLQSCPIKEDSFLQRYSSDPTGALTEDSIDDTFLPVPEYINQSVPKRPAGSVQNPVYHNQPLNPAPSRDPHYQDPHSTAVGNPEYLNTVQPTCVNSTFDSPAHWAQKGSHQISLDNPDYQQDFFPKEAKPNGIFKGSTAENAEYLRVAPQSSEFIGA
Chain of Ba/F3 EGFR-Del19/C797S (P00533 with tags, fused parts or gaps DEL746-750/C797S, form open): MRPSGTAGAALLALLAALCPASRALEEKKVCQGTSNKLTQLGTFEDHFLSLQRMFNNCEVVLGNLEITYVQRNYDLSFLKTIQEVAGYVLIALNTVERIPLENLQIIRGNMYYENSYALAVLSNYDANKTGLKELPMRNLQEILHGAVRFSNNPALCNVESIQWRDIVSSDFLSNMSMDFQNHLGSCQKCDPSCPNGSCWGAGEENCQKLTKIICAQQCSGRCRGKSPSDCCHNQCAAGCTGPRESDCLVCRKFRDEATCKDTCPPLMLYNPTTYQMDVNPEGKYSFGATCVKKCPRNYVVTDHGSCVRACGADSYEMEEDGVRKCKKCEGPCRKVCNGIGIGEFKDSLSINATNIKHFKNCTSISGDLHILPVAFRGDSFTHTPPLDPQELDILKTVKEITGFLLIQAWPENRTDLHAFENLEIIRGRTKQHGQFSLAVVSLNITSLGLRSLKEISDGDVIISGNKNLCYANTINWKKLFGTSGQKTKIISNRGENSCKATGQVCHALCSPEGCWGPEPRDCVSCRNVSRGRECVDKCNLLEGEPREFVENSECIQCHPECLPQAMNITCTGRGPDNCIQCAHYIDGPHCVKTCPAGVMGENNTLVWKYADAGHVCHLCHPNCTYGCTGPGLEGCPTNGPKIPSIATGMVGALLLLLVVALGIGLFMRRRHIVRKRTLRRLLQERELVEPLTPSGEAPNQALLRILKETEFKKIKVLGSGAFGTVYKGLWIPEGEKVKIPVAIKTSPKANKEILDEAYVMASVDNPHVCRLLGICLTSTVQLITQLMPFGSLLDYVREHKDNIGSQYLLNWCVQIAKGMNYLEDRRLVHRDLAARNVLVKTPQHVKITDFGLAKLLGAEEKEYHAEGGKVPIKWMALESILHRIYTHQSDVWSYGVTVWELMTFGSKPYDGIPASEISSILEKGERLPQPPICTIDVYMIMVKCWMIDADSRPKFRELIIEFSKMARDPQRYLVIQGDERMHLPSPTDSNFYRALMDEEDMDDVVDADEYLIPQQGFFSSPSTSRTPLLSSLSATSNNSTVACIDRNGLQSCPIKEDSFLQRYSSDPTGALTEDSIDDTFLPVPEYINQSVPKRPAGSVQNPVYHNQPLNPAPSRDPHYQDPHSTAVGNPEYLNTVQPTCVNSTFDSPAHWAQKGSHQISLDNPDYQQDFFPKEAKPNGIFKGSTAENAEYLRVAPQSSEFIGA
Chain of Ba/F3 EGFR-Del19/T790M (P00533 with tags, fused parts or gaps DEL746-750/T790M, form open): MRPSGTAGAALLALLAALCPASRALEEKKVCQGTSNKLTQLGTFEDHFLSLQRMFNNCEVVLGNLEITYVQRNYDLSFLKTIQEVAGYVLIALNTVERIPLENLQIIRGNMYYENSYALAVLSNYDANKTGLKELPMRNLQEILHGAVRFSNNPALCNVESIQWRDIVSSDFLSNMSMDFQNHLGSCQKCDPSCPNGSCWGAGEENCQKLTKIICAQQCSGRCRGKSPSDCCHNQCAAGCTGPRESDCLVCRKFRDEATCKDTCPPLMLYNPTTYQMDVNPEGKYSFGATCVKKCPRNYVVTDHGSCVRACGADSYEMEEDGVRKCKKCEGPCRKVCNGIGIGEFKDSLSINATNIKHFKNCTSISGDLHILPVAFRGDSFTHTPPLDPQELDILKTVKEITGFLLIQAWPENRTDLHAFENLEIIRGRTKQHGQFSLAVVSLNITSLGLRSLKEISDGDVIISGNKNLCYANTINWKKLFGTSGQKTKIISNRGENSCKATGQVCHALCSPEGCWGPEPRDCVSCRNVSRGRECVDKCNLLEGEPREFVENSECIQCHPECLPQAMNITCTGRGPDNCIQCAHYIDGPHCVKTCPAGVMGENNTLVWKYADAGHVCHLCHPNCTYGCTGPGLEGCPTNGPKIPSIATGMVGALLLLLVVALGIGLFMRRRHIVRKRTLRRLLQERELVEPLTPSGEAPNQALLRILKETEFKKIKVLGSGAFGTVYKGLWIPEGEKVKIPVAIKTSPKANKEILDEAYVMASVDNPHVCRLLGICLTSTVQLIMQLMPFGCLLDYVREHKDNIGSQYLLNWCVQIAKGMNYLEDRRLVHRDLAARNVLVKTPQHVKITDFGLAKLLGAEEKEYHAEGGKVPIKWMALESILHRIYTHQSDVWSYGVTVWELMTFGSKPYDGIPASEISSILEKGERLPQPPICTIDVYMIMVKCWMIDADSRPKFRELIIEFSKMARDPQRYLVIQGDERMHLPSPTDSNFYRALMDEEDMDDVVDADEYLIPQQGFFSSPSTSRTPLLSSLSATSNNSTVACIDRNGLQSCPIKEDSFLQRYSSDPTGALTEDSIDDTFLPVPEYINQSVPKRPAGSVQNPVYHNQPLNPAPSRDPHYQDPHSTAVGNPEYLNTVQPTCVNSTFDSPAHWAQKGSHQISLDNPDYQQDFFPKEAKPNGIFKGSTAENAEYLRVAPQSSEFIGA

For `CC(C)n1cc(-c2cnc3cc2O[C@@H](C)CCOc2c(cnn2C)-c2nccc(n2)N3)c(OCC(F)F)n1` [(15)], the GI50 in assay [1], in assay [2] and in assay [3] was less than 50 nM in each case. Besides, the pIC50 in assay [4], in assay [5] and in assay [6] was more than 7.30 each time.

On to `CCOc1nn(C2CCN(C)CC2F)cc1-c1cnc2cc1O[C@@H](C)CCOc1c(cnn1C)-c1nccc(n1)N2` (stereo partly drawn) [(16)], for which the GI50 in assay [1], in assay [2] and in assay [3] was less than 50 nM each time. Besides, the pIC50 in assay [4], in assay [5] and in assay [6] was more than 7.30 throughout.

In the case of `CCOc1nn(C2CC2)cc1-c1cnc2cc1O[C@@H](C)CCOc1c(cnn1C)-c1nccc(n1)N2` [(18)], the GI50 in assay [1], in assay [2] and in assay [3] was less than 50 nM in each case. Also, the pIC50 in assay [4], in assay [5] and in assay [6] was more than 7.30 in each case.

On to `CCOc1nn(C2CC2CN2CCOCC2)cc1-c1cnc2cc1O[C@@H](C)CCOc1c(cnn1C)-c1nccc(n1)N2` (stereo partly drawn) [(20)], for which the GI50 in assay [1], in assay [2] and in assay [3] was less than 50 nM in each case. In addition, the pIC50 in assay [4], in assay [5] and in assay [6] was more than 7.30 throughout.

Take `CCOc1nn(CC(F)F)cc1-c1cnc2cc1O[C@@H](C)CCOc1c(cnn1C)-c1nccc(n1)N2` [(29)]: the GI50 in assay [1], in assay [2] and in assay [3] was less than 50 nM each time. Further, the pIC50 in assay [4], in assay [5] and in assay [6] was more than 7.30 each time.

Take `CCOc1nn(C2CC3CCC(C2)O3)cc1-c1cnc2cc1O[C@@H](C)CCOc1c(cnn1C)-c1nccc(n1)N2` (stereo partly drawn) [(30)]: the GI50 in assay [1], in assay [2] and in assay [3] was less than 50 nM in each case. Moreover, the pIC50 in assay [4], in assay [5] and in assay [6] was more than 7.30 each time.

For `C[C@H]1CCOc2c(cnn2C)-c2nccc(n2)Nc2cc(c(-c3cn(C4CC4)nc3OCC(F)(F)F)cn2)O1` [(32)], the GI50 in assay [1], in assay [2] and in assay [3] was less than 50 nM throughout. The pIC50 in assay [4], in assay [5] and in assay [6] was more than 7.30 each time.

`CCOc1nn(C2CC(C)(C)OC(C)(C)C2)cc1-c1cnc2cc1O[C@@H](C)CCOc1c(cnn1C)-c1nccc(n1)N2` [(33)]: the GI50 in assay [1] is less than 50 nM; in assay [2], 50 to 100 nM; in assay [3], 50 to 100 nM. The pIC50 in assay [4], in assay [5] and in assay [6] was more than 7.30 throughout.

As for `CCOc1nn(-c2ccncc2)cc1-c1cnc2cc1O[C@@H](C)CCOc1c(cnn1C)-c1nccc(n1)N2` [(34)], the GI50 in assay [1] was less than 50 nM; in assay [2], 50 to 100 nM; in assay [3], less than 50 nM. Besides, the negative-log IC50 (pIC50) in assay [4], in assay [5] and in assay [6] was more than 7.30 in each case.

`CCOc1ncc(C)cc1-c1cnc2cc1O[C@@H](C)CCOc1c(cnn1C)-c1nccc(n1)N2` [(35)]: the GI50 was 100 to 1000 nM in assay [1], 100 to 1000 nM in assay [2] and not below 1000 nM in assay [3]. For the same molecule, the pIC50 is more than 7.30 in assay [4], not above 6.00 in assay [5] and 6.00 to 7.00 in assay [6].

With `C[C@H]1CCOc2c(cnn2C)-c2nccc(n2)Nc2cc(c(-c3cn(C4CN(C5COC5)C4)nc3OCCF)cn2)O1` [(36)], the GI50 in assay [1], in assay [2] and in assay [3] was less than 50 nM in each case. In addition, the pIC50 in assay [4], in assay [5] and in assay [6] was more than 7.30 each time.

On to `CCOc1nn(C2CC3CCC(C2)N3C)cc1-c1cnc2cc1O[C@@H](C)CCOc1c(cnn1C)-c1nccc(n1)N2` (stereo partly drawn) [(37)], for which the GI50 in assay [1], in assay [2] and in assay [3] was less than 50 nM each time. Moreover, the pIC50 in assay [4], in assay [5] and in assay [6] was more than 7.30 in each case.

On to `CCOc1nn(C2CCN(C3COC3)CC2)cc1-c1cnc2cc1O[C@@H](C)CCOc1c(cnn1C)-c1nccc(n1)N2` [(40)], for which the GI50 in assay [1], in assay [2] and in assay [3] was less than 50 nM in each case. The pIC50 in assay [4], in assay [5] and in assay [6] was more than 7.30 each time.

As for `CCCOc1nn(C2CC2)cc1-c1cnc2cc1O[C@@H](C)CCOc1c(cnn1C)-c1nccc(n1)N2` [(42)], the GI50 in assay [1], in assay [2] and in assay [3] was less than 50 nM each time. Moreover, the negative-log IC50 (pIC50) in assay [4], in assay [5] and in assay [6] was more than 7.30 in each case.

For `C[C@H]1CCOc2c(cnn2C)-c2nccc(n2)Nc2cc(c(-c3cn(C4CC4)nc3OCCF)cn2)O1` [(43)], the GI50 in assay [1], in assay [2] and in assay [3] was less than 50 nM each time. The pIC50 in assay [4], in assay [5] and in assay [6] was more than 7.30 each time.

In the case of `C[C@H]1CCOc2c(cnn2C)-c2nccc(n2)Nc2cc(c(-c3cn(C)cc3OCC(F)(F)F)cn2)O1` [(48), (10S)-5,10-dimethyl-13-[1-methyl-4-(2,2,2-trifluoroethoxy)pyrrol-3-yl]-7,11-dioxa-4,5,15,17,21,22-hexazatetracyclo[16.3.1.1^12,16.0^2,6]tricosa-1(22),2(6),3,12(23),13,15,18,20-octaene], the GI50 in assay [1], in assay [2] and in assay [3] was less than 50 nM throughout. Also, the pIC50 in assay [4], in assay [5] and in assay [6] was more than 7.30 throughout.

Regarding `C[C@H]1CCOc2c(cnn2C)-c2nccc(n2)Nc2cc(c(-c3cn(CCN4CCCC4)nc3OCC(F)(F)F)cn2)O1` [(56)], the GI50 in assay [1], in assay [2] and in assay [3] was less than 50 nM in each case. The pIC50 in assay [4], in assay [5] and in assay [6] was more than 7.30 throughout.

Regarding `CCOC(=O)CN1CCC(n2cc(-c3cnc4cc3O[C@@H](C)CCOc3c(cnn3C)-c3nccc(n3)N4)c(OCC)n2)CC1` [(62)], the GI50 in assay [1], in assay [2] and in assay [3] was less than 50 nM throughout. For the same molecule, the pIC50 in assay [4], in assay [5] and in assay [6] was more than 7.30 each time.

Take `C[C@H]1CCOc2c(cnn2C)-c2nccc(n2)Nc2cc(c(Nc3ccn(C)n3)cn2)O1` [(70)]: the GI50 in assay [1], in assay [2] and in assay [3] was less than 50 nM throughout. Also, the pIC50 in assay [4], in assay [5] and in assay [6] was more than 7.30 each time.

For `C[C@H]1CCOc2c(cnn2C)-c2nccc(n2)Nc2cc(c(-c3cc4ccccc4n3C)cn2)O1` [(74)], the GI50 was 100 to 1000 nM in assay [1], 100 to 1000 nM in assay [2] and not below 1000 nM in assay [3]. Also, the figures for the pIC50 in assay [4], in assay [5] and in assay [6] were 6.00 to 7.00, not above 6.00 and 6.00 to 7.00, respectively.

As to `C[C@H]1CCOc2c(cnn2C)-c2nccc(n2)Nc2cc(c(-c3ccc4c(ccn4C)c3)cn2)O1` [(75)], the GI50 was less than 50 nM in assay [1], 50 to 100 nM in assay [2] and 100 to 1000 nM in assay [3]. Besides, the pIC50 is more than 7.30 in assay [4], 7.00 to 7.30 in assay [5] and more than 7.30 in assay [6].

Regarding `C[C@H]1CCOc2c(cnn2C)-c2nccc(n2)Nc2cc(c(-c3cnc(N4CCN(C)CC4)n3C)cn2)O1` [(77)], the GI50 in assay [1] was less than 50 nM; in assay [2], 50 to 100 nM; in assay [3], 100 to 1000 nM. The pIC50 in assay [4], in assay [5] and in assay [6] was more than 7.30 in each case.

`Cc1c(-c2cnc3cc2O[C@@H](C)CCOc2c(cnn2C)-c2nccc(n2)N3)cnn1C1CCN(CCCF)CC1` [(84)]: the GI50 in assay [1], in assay [2] and in assay [3] was less than 50 nM throughout. In addition, the pIC50 in assay [4], in assay [5] and in assay [6] was more than 7.30 each time.

Usually pIC50 stands for the negative decadic logarithm of the IC50, by convention in mol/L.

The record behind these values is patent publication US20240150375A1, “MACROCYCLIC COMPOUNDS AND USES THEREOF” (Theseus Pharmaceuticals, Inc., priority 2021, published 2024).
